According to patent publication US7094787B2, “Compositions for regulating desire for smoking” (Taiyo Kagaku Co., Ltd., priority 2000, dated 2006):

Tested on: mice
Format: in vivo
Settings: oral administration at 5 g/kg weight
Source text: The composition of the present invention is based on action for suppressing the craving for smoking that has been found for the theanine for the first time. The theanine has been known to be a main ingredient of sapidity in tea and used as a food additive for the sapidity. […] There is no limitation in an amount of addition based on the Food Hygiene Law. Further, unlike a conventional nicotine preparation, since there is no dependence, the composition of the present invention can suppress the craving for smoking safely and effectively.

CCNC(=O)CC[C@H](N)C(=O)O [theanine, γ-glutamyl ethylamide]
death in acute toxicity test: no case of death
